pIC50: −log10 of the molar value. Activity calls are given as the source filed them. The calls are words filed in the database; no cut-off is given here. *1 amine or outer side, *2 acyl side, *3 side chain or, on linkers, in order; H or OH if unused. Where a SMILES comes first, the peptide text is derived from it. Bridges are numbered along the chain shown (N, C = ends). Roman numbers before positions name the chains, in order. [ ]: non-standard residue; d: D form. Actinocin(9to1) = Cc1c2oc3c(C)ccc(C(=O)[*:1])c3nc-2c(C(=O)[*:2])c(N)c1=O; NMeV = CN[C@H](C(=O)O)C(C)C; Sar = CNCC(=O)O Where only a bound is given, the exact number is not on record here.

We go through five compounds from ChEMBL document CHEMBL5584262, “Plakevulin A induces apoptosis and suppresses IL-6-induced STAT3 activation in HL60 cells” (Bioorg Med Chem Lett, 2024).

The test system of experiment [1] is HL-60. Description: Induction of apoptosis in human HL-60 cells assessed as DNA fragmentation at 1 uM treated for 24 hrs by agarose gel electrophoresis. The format is functional, cell-based.
Experiment [2] deals with HL-60. The experiment is described as follows: Induction of apoptosis in Z-VAD-fmk-treated human HL-60 cells assessed as DNA fragmentation at 1 uM treated for 24 hrs by agarose gel electrophoresis. The class given is functional, cell-based.
In experiment [3] the target is T1, Peroxisomal multifunctional enzyme type 2 (Homo sapiens) (UniProt P51659).
T1 sequence (whole entry): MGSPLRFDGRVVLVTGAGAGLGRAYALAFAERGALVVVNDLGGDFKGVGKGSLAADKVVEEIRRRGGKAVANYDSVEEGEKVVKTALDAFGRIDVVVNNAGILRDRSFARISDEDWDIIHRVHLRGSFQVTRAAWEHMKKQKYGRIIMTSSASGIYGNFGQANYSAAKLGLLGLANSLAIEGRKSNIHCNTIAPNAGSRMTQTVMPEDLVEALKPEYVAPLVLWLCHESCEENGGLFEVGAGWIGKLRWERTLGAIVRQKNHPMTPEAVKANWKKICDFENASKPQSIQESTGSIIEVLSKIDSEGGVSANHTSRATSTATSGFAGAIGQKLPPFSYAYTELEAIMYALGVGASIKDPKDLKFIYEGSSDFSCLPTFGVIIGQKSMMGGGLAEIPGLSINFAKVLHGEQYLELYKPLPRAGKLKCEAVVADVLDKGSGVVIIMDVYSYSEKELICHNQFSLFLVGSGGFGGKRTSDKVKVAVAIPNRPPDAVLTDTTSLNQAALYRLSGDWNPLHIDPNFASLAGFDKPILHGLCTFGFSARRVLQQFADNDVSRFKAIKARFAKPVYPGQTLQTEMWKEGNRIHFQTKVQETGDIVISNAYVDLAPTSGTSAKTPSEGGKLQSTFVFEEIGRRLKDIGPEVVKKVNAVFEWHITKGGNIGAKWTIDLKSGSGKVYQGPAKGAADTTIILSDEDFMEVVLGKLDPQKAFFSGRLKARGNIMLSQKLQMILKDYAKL
The experiment is described as follows: Binding affinity to HSD17B4 in human HL-60 cell lysate by pull down assay. The class given is subcellular.

Experiment [4] concerns HL-60. The experiment is described as follows: Cytotoxicity against human HL-60 cells assessed as inhibition of cell viability incubated for 48 hrs by WST-8 assay. The format is functional, cell-based. The conditions noted are these: HL-60, 48 h. Background: Tetrazolium dyes change colour on reduction, which living cells bring about.
The subject of experiment [5] is HL-60. Description: Induction of apoptosis in human HL-60 cells assessed as DNA fragmentation at 5 uM treated for 24 hrs by agarose gel electrophoresis. The class given is functional, cell-based.
Experiment [6] concerns HL-60. The experiment is described as follows: Induction of apoptosis in Z-VAD-fmk-treated human HL-60 cells assessed as DNA fragmentation at 5 uM treated for 24 hrs by agarose gel electrophoresis. The class given is functional, cell-based.
For experiment [7], the system named is HL-60. The experiment is described as follows: Induction of apoptosis in Z-VAD-fmk-treated human HL-60 cells assessed as inhibition of caspase-3 activation at 5 uM treated for 24 hrs by Ac-DEVD-MCA substrate based analysis. The format is functional, cell-based.
The test system of experiment [8] is HL-60. Description: Cytotoxicity against human HL-60 cells assessed as inhibition of cell viability incubated for 24 hrs by MTT assay. The format is functional, cell-based. The conditions noted are these: HL-60, 24 h.
The subject of another experiment is HeLa. The experiment is described as follows: Cytotoxicity against human HeLa cells assessed as inhibition of cell viability incubated for 24 hrs by MTT assay. The class given is functional, cell-based.
A further experiment has as its system MC3T3-E1. The experiment is described as follows: Cytotoxicity against mouse MC3T3-E1 cells assessed as inhibition of cell viability incubated for 24 hrs by MTT assay. The class given is functional, cell-based. The conditions noted are these: MC3T3-E1, 24 h.
The next experiment deals with MRC5. Description: Cytotoxicity against human MRC5 cells assessed as inhibition of cell viability incubated for 24 hrs by MTT assay. The format is functional, cell-based. The conditions noted are these: MRC5, 24 h.
For experiment [9], the system named is HL-60. Description: Downregulation of IL-6-induced STAT3 phosphorylation in human HL-60 cells pretreated for 24 hrs followed by IL-6 stimulation by Western blot analysis. The class given is functional, cell-based.
Experiment [10] is described as follows: Inhibition of calf DNA polymerase alpha using DNA as substrate incubated for 60 mins in presence of […]. More on the design: species or system Bos taurus.
A further experiment has as its target DNA polymerase beta (Rattus norvegicus, UniProt P06766). Description: Inhibition of rat DNA polymerase beta using DNA as substrate incubated for 60 mins in presence of […].
In experiment [11] the target is T1, Peroxisomal multifunctional enzyme type 2 (Homo sapiens). Description: Binding affinity to HSD17B4 in human HL-60 cell lysate by Western blot analysis. The class given is subcellular.

On to `Cc1c2oc3c(C)ccc(C(=O)N[C@@H]4C(=O)N[C@H](C(C)C)C(=O)N5CCC[C@H]5C(=O)N(C)CC(=O)N(C)[C@@H](C(C)C)C(=O)O[C@@H]4C)c3nc-2c(C(=O)N[C@@H]2C(=O)N[C@H](C(C)C)C(=O)N3CCC[C@H]3C(=O)N(C)CC(=O)N(C)[C@@H](C(C)C)C(=O)O[C@@H]2C)c(N)c1=O` (I: T[dV]P[Sar][NMeV] / II: T[dV]P[Sar][NMeV]; ester I:1-I:C, II:1-II:C; linker I:N-II:N via Actinocin(9to1)), for which the result with HL-60 [1] was Active. In the experiment with HL-60 [2], the result was inactive.
As to `O=C(O)CCCCCNC(=O)CCCC[C@@H]1SC[C@@H]2NC(=O)N[C@@H]21`, in experiment [3], the outcome was inactive.
`CCCCCCCCCCCCCCCC[C@]1(O)C=C[C@H](O)[C@H]1C(=O)OC` [PLAKEVULIN A]: the pIC50 (in general, −log10 of the IC50, conventionally taken in molar units) was 5.58 in the experiment on HL-60 [4]; 5.69 in the experiment with HL-60 [8]; 4.94 in the experiment with HeLa; 4.91 in the experiment with MC3T3-E1; less than 4.82 in the experiment on MRC5; 3.86 in [10]. Also, at DNA polymerase beta, the pIC50 is 3.72. In addition, the result in the experiment on HL-60 [5] was Active. In addition, the result in the experiment on HL-60 [6] was inactive. Also, in the experiment with HL-60 [7], the inhibition result is “Active”. The Activity entry in the experiment with HL-60 [9] is “Dose-Dependent Effect”.
Regarding `CCCCCCCCCCCCCCCC[C@]1(O)C=C[C@H](OC(=O)CCCCCNC(=O)CCCC[C@@H]2SC[C@@H]3NC(=O)N[C@@H]32)[C@H]1C(=O)OC`, the pIC50 with HL-60 [4] is 5.24. The result in experiment [11] and in experiment [3] was Active.
As to `CO/C=C(/C(=O)OC)c1ccccc1COc1cc(C(F)(F)F)nc(OC(C)C)n1`, the Activity result with HL-60 [9] was “Dose-Dependent Effect”.
